Measurements published in paper PMC5537074 (Journal of medicinal chemistry, 2017).

Tests used:
PPARγ = settings: as compared to rosiglitazone; cited from earlier work
rodents = settings: cited from earlier work
[1] = test system: cultured cells (adipocyte differentiation); settings: cultured cells treated with compound; cited from earlier work
T2DM patients = settings: cited from earlier work
[2] = target: T1, human GAL4-PPARγ-Hinge-LBD (Homo sapiens, UniProt P37231); experiment: Transactivation assay; type: cell-based; settings: HEK293T cells, GAL4-PPARγ-Hinge-LBD / UAS-luciferase, 18 h incubation, doses 169 pM to 10 μM
T1 sequence (P37231 238-503 limits assumed): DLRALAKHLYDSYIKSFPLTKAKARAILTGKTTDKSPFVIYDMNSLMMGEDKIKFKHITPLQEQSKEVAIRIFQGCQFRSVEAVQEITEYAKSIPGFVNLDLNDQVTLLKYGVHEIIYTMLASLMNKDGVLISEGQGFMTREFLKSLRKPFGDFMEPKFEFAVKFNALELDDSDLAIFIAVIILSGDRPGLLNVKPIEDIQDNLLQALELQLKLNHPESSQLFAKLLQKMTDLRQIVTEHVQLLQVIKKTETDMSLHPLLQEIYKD

Molecule: O=S(=O)(Nc1cc(Cl)c(Oc2cnc3ccccc3c2)c(Cl)c1)c1ccc(Cl)cc1Cl [Compound 1, 2,4-dichloro-N-(3,5-dichloro-4-(quinolin-3-yloxy)phenyl)benzenesulfonamide]
- maximal transcriptional activation of reporter genes (PPARγ): approximately 30%
- lowers blood glucose levels (rodents; 0.3 mg/kg dose): over 30%
- total weight gain, heart weight gain, lung weight gain (rodents; compared with rosiglitazone administration): less total weight gain, heart weight gain, and lung weight gain
- Adipocyte differentiation [1]: not enhanced
- pharmacokinetic and pharmacodynamic properties (T2DM patients; Phase 1 studies (4 studies)): favorable pharmacokinetic and pharmacodynamic properties
- tolerability (T2DM patients; Phase 2a, multicenter, double blind, placebo controlled, T2DM patients): generally well tolerated

Molecule: CN(CCOc1ccc(CC2SC(=O)NC2=O)cc1)c1ccccn1 (stereo not drawn) [rosiglitazone]
- Adipocyte differentiation [1]: significant induction

Molecule: N-(3,5-dichloro-4-(quinolin-3-yloxy)phenyl)-thiophene-2-carboxamide [Compound 7]
- EC50 (nM) n=3 [2]: no activity

Molecule: O=S(=O)(Nc1cc(Cl)c(Oc2cnc3ccccc3c2)c(Cl)c1)c1cccs1 [Compound 15, N-(3,5-dichloro-4-(quinolin-3-yloxy)phenyl)thiophene-2-sulfonamide]
- EC50 (nM) n=3 [2]: no activity
